Measurements as given in patent publication EP0103895A2, “Novel hydroxylamine derivatives, production and use thereof” (MEIJI SEIKA KABUSHIKI KAISHA, priority 1982, dated 1984).
Where “and” joins values, the source holds several entries; their conditions need not be identical. Equal entries are not always repeated.

Key:
[1] = tested on: fowl roundworm (As. galli); experiment: Anthelmintic test in chickens artificially infected with fowl roundworm, compound added to feed, E.P.G. and worm count up to 21st day (Test Examples A2, B2, C2, D2); assay type: in vivo, Ascaridia galli; details: Ascaridia galli, po, 504 h, chickens, worm count on 21st day, one value per chicken, read-out: Anthelmintic effect; for inhibition in vivo at 10 ppm: 10 ppm added to feed; for inhibition in vivo at 50 ppm: 50 ppm added to feed
Procedure: Chickens artificially infected with fowl roundworm (As. galli) were employed in groups each of two chickens.
Fecal matter testing was conducted before initiation of the test and on the 7th, 14th and 21st day after initiation of the test. Reduction in worm egg number was examined by calculating E.P.G. (worm eggs per 1 g of fecal matter), and the number of discharged worm bodies and the number of worm bodies remaining in the enteron when the chicken was killed on 21st day were counted to determine the anthelmintic percentage, from which the anthelmintic effect was judged.

[2] = tested on: Liver fluke; Fasciola hepatica (F. hepatica); experiment: Test of anthelmintic effect against rat infected experimentally with liver fluke (Test Examples A11, B11, C11, D11); assay type: in vivo; parameters: key to Presence or absence of fluke egg in fecal matter On 21st day after the last administration: +: indicates detection of fluke egg; -: indicates no detection; details: rats, 50 mg/Kg x 5 orally, one value per rat; for Condition of fluke body: autopsy, liver, "Denatured" = fluke body is alive but a part of fluke body has changed
Text: Twenty-eight (28) rats were employed in fourteen groups each of two rats, each rat being infected with 5 metacercariae of Liver fluke; Fasciola he^patica (F.. hepatica) and confirmed to have worm eggs on the 75th day after infection according to fecal matter testing.
Judgement of the effect was made by the presence or absence of the worm gees in the fecal matter on the 21st day after the last administration and by examination according to autopsis as to whether the worm bodies were dead or alive in the liver.
The same as that in Test Example All, but eight (8) rats were employed by grouping them into groups each of two rats, each rat being infected with 5 metacercariae of liver fluke and confirmed to have fluke eggs on the 75th day after infection according to fecal matter testing.
The compounds provided for the tests were Compound Nos. Bl, B8 and B19.
The same as that in Test Example All, but six (6) rats were employed by grouping them into groups each of two rats, each rat being infected with 5 metacercariae of Fasciola hepatica and confirmed to have worm eggs on the 75th day after infection according to fecal matter testing.
The compounds provided for the tests were Compound Nos. C2 and C6.
The same as that in Test Example All, but the compounds provided for tests were Compound Nos. D14, D15 and D16.

[3] = tested on: fowl roundworm (As. galli); experiment: Anthelmintic test in chickens infected with fowl roundworm, single oral dose of 40 mg per Kg, worm bodies counted within 24 hours (Test Example E1); assay type: in vivo, Ascaridia galli; details: 40 mg per Kg oral in gelatin capsule
Procedure: Chickens infected with fowl roundworm (As. galli) were employed in groups each consisting of five chickens. The compound provided for testing was orally administered in a quantity of 40 mg per Kg of body weight to each chicken in a gelatin capsule. The number of worm bodies discharged within 24 hours after administration of the medicine was counted. Then the chicken was killed, and the number of worm bodies remaining in the enteron was counted to determine the anthelmintic percentage, wherefrom the anthelmintic effect was judged.

[4] = tested on: fowl roundworm (As. galli); experiment: Anthelmintic test in chickens infected with fowl roundworm, compound added to feed at 250 ppm and 1,000 ppm, E.P.G. and worm count on 5th day (Test Example E2); assay type: in vivo, Ascaridia galli; details: for E.P.G. after 5 days: worm egg number in 1 g of fecal matter
Procedure: Chickens infected with fowl roundworm (As. galli) were employed in groups each of two chickens.
The compound provided for the test was dissolved in a small amount of ethyl alcohol and adsorbed on defatted rice bran and added to chicken feed at levels of 250 ppm and 1,000 ppm. As control, a feed containing no such compound was employed.
Fecal matter testing was conducted before initiation of the test and on the 5th day after initiation of the test. The reduction in worm egg count was examined by calculating the E.P.G. (worm egg number in 1 g of fecal matter). The number of discharged worm bodies and the number of worm bodies remaining in the enteron when the chicken was killed on 5th day were counted to determined the anthelmintic percentage, from which the anthelmintic effect was judged.

[5] = tested on: fowl roundworm (Ascaridia galli); experiment: Anthelmintic test in chickens artificially infected with fowl roundworm, single oral dose in gelatin capsule, worm bodies counted within 48 hours (Test Examples A1, B1, C1, D1); assay type: in vivo; details: Ascaridia galli, po, 48 h, chicken, 30 mg/Kg oral in gelatin capsule; chickens No.1-3; read-out: Anthelmintic effect after 48 hours
Procedure: Chickens infected artificially with fowl roundworm (Ascaridia galli) were employed in groups each consisting of three chickens. Fecal matter testing was conducted before administration of medicine to confirm infection with the worm. The quantity of the compound provided for testing was 10 mg and 20 mg per Kg of body weight, which was orally administered each in a gelatin capsule to the chicken. The number of worm bodies discharged within 48 hours after administration of medicine was counted, the chicken was killed after 48 hours and the number of worm bodies remaining in the enteron was counted to determine the anthelmintic percentage, wherefrom the antihelmintic effect was judged.
The same as that in Test Example Al.
The same as that in Test Example Al except that the compound provided for testing was in quantities of 30 mg and 50 mg per Kg of body weight, which were orally administered to the chickens in gelatin capsules.
The same as that in Test Example Al, except that the compounds provided for testing were used in quantities of 15 mg and 30 mg per Kg of body weight, which were orally administered each in a gelatin capsule to the chicken.

[6] = tested on: swine Oesophagostomum (Oesophagostomum dentatum); experiment: Test of anthelmintic effect against swine Oesophagostomum in naturally infected pigs, E.P.G. on 7th day (Test Examples A8, B8, C8, D8); assay type: in vivo
Procedure: Six pigs infected with swine Oesophagostomum (naturally infected pigs) were employed by grouping them into groups each of two pigs.
As a control, only gelatin capsules were administered orally to the two pigs.
Before administration and on the 7th day after administration, fecal matter testing was conducted to calculate the E.P.G., and the anthelmintic effect was judged by the changing of the E.P.G. to negative.

SMILES | inhibition in vivo at 10 ppm [1] [%] | inhibition in vivo at 50 ppm [1] [%] | Condition of fluke body [2] | Presence or absence of fluke egg in fecal matter On 21st day after the last administration [2] | other results
C#CCN(OCC=C)C(=O)CC [Compound A5, N-propargyl-N-propionyl-0-allylhydroxylamine] | 80 to 90 | 100 | dead | - | 
C#CCN(OCC=C)C(=O)CCCCCCCCCCCCCCCCC [Compound A9, N-propargyl-N-stearoyl-N-allylhydroxylamine] | 100 | 100 | dead | - | 
C#CCN(OCC=CC)C(C)=O [Compound A4, N-propargyl-N-acetyl-O-crotylhydroxylamine] | 80 to 90 | 100 | dead | - | 
C#CCN(OCC=C)C(=O)CCCCCCC/C=C\CCCCCCCC [Compound A8, N-propargyl-N-oleoyl-O-allylhydroxylamine] | 100 | 100 | dead | - | 
C#CCN(OCC=C)C(=O)CCC [Compound A6, N-propargyl-N-butylyl-O-allylhydroxylamine] | 100 | 100 |  | - | Condition of fluke body ([2]; 50 mg/kg): dead and denatured
C#CCON(CC#C)C(=O)CCCCC [Compound E5, N,O-dipropargyl-N-caproylhydroxylamine] |  |  |  |  | inhibition in vivo at 40 mg/kg ([3]; Ascaridia galli, 24 h, chicken No.1, read-out: Anthelmintic effect after one day): 100%; Anthelmintic effect after one day ([3]; chicken No.2): +++ (100%); Anthelmintic effect after one day ([3]; chicken No.3): +++ (100%); Anthelmintic effect after one day ([3]; chicken No.4): +++ (100%); Anthelmintic effect after one day ([3]; chicken No.5): +++ (100%); E.P.G. after 5 days ([4]; 250 ppm in feed, chicken No. 1): 0; anthelmintic effect ([4]; 250 ppm in feed, chicken No. 2, 5th day): +++ (100%); E.P.G. after 5 days ([4]; 250 ppm in feed, chicken No. 2): 0; E.P.G. after 5 days ([4]; 1000 ppm in feed, chicken No. 1): 0; anthelmintic effect ([4]; 1000 ppm in feed, chicken No. 2, 5th day): +++ (100%); E.P.G. after 5 days ([4]; 1000 ppm in feed, chicken No. 2): 0; inhibition in vivo at 250 ppm ([4]; Ascaridia galli, feed or water, 120 h, 250 ppm in feed, chicken No. 1, 5th day, read-out: Anthelmintic effect): 100%; inhibition in vivo at 1000 ppm ([4]; Ascaridia galli, feed or water, 120 h, 1000 ppm in feed, chicken No. 1, 5th day, read-out: Anthelmintic effect): 100%
C#CCNOCCCC [Compound D12] |  |  |  |  | inhibition in vivo at 30 mg/kg [5]: 100%; Change of E.P.G. 7th day ([6]; pig, Oesophagostomum dentatum, 20 mg/Kg, one administration): 0; Change of E.P.G. Before administration ([6]; pig, Oesophagostomum dentatum, before 20 mg/Kg (baseline)): 1,600 and 2,100; anthelmintic effect ([6]; pigs, one administration of 20 mg/Kg): marked anthelmintic effect
